Assays:
Assay in all cases: Agar diffusion test (microbiological test)
Assay type in all cases: cell-based
Conditions in all cases: 100 μl of a 1% solution in abs. ethanol; 48 h incubation at 37° C.
[1] = tested on: Corynebacterium xerosis ATCC 373
Description: (§1) Casein soybean flour peptone agar (Merck)
(§2) Casein soybean flour peptone broth (Merck)
Corynebacterium xerosis ATCC 373
(§3) Preparation of the Germ Suspensions
(§4) The test germs are cultivated overnight (about 18 h) at 37° C. in Caso-Broth (5 ml test tubes). The germ count of the overnight cultivation is determined by the spiralometer method and must be between 10^8-10^9 KBE/ml.
(§5) The culture is diluted to about 10^7 KBE/ml with 0.85% NaCl solution, pH 7.2.
(§6) Petri dishes are filled with about 18 ml of sterile nutrient agar which is allowed to solidify.
(§7) 3.5 ml of the germ dilution in 0.85% NaCl are pipetted into 500 ml of still liquid agar which is cooled in a water bath to 47° C. and homogenised.
(§8) 6 ml of the germ-infested agar are evenly distributed on the solidified ground layer. After a drying and storage time of about 24 hours at 4° C. the dishes are ready for the test.
(§9) Drop Amount 100 μl of a 1% solution of the tetraester of formula (104) in abs. ethanol are pipetted into the centre of the dish and are dried for about 30 minutes at room temperature (the substances run into zones of about 20-30 mm).
(§10) Results of the Agar Diffusion Test
(§11) After a 48 h incubation of the agar dishes at 37° C., the growth of the […] in the drop zone is assessed.

[2] = tested on: Staphylococcus aureus ATCC 9144
Description: as §1, §2
Staphylococcus aureus ATCC 9144
as §3, §4, §5, §6, §7, §8, §9, §10, §11

[3] = tested on: Escherichia coli NCTC 8196
Description: as §1, §2
Escherichia coli NCTC 8196
as §3, §4, §5, §6, §7, §8, §9, §10, §11

Compound	growth in the drop zone, Corynebacterium xerosis ATCC 373 [1]	growth in the drop zone, Staphylococcus aureus ATCC 9144 [2]	growth in the drop zone, Escherichia coli NCTC 8196 [3]
CCCCC(CC)COC(=O)C[C@H](NCCN[C@@H](CC(=O)OCC(CC)CCCC)C(=O)OCC(CC)CCCC)C(=O)OCC(CC)CCCC (stereo partly drawn) [[S,S]-Ethylenediaminedisuccinic acid tetraisooctyl ester]	inhibition	no inhibition	no inhibition
CCCCC(CC)COC(=O)CC(NCCNC(CC(=O)OCC(CC)CCCC)C(=O)OCC(CC)CCCC)C(=O)OCC(CC)CCCC (mixture of isomers) [ethylenediaminedisuccinic acid tetra(isooctyl)ester (isomer mixture), [S,S]-/[R,R]-/[R,S]-Ethylenediaminedisuccinic acid tetraisooctyl ester (isomer mixture)]	inhibition	no inhibition	no inhibition

— patent US6369268B1, “Diester amine adducts” (Ciba Specialty Chemicals Corporation, priority 1997, dated 2002)
